For the test, the target named is T1, human ADRA2B receptor (Homo sapiens, UniProt P18089).
T1 construct: expressed in transfected cells
T1 sequence (P18089 1-450): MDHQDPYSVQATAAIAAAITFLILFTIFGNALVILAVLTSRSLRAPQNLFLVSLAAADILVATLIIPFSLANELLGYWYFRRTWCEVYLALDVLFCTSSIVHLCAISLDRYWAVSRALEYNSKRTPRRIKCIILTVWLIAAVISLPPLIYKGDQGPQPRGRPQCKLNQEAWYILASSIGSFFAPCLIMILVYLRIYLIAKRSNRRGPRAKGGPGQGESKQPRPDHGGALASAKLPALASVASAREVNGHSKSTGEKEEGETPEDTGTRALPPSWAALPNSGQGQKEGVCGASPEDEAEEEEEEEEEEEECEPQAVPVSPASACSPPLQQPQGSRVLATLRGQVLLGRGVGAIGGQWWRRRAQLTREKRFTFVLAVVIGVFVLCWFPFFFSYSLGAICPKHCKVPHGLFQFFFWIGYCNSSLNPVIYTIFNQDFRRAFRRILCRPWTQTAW
Description: ADRA2B arrestin agonist assay. The format is cell-based. The following applies: CHO-K1 cells stably expressing human ADRA2B; read-out: Beta-Arrestin - Human Alpha2B EC50. On the procedure: ADRA2A and ADRA2B Arrestin Agonist Assay Method
The arrestin assay uses frozen CHO-K1 cell lines stably expressing human ADRA2A and ADRA2B receptors. Cells are frozen following normal cell freezing protocols. Briefly, cells are washed with PBS and then dissociated with 0.25% trypsin. Dissociated cells are quenched in full media and then collected by centrifugation at 290×g for 5 minutes. […] Cells are stored at −80° C. (or in liquid N2 if stored >6 months) until the day of the assay.
On the day before the assay, frozen cells are thawed in a 37° C. water bath, brought up in 20 mL of full media, and collected via centrifugation at 290×g for 5 minutes. […] Cells are incubated overnight in a 37° C., 5% CO2 cell incubator.
On the day of the assay, agonists are diluted in Opti-MEM to 3.5x of the final assay concentration. 4 μL of agonists are added to the cells and incubated for 2 hours at 37° C. in a 5% CO2 cell incubator. 6 μL of arrestin detection reagents are dispensed onto the cells and the plates are incubated for 2 hours at room temperature. […] Plates are read on an Envision luminescence plate reader.

As to `Cc1cccc(C(Cc2ccc(N(C)C)nc2)c2c[nH]cn2)c1C` (stereo not drawn) [Compound 292, N,N-dimethyl{5-[2-(4-imidazolyl)-2-(2,3-xylyl)ethyl]-2-pyridyl}amine], the concentration for a half-maximal effect (EC50) was less than 10 nM. Consider `Cc1cnc(CC(c2c[nH]cn2)c2cccc(C)c2C)s1` (stereo not drawn) [Compound 385, 2-[2-(4-imidazolyl)-2-(2,3-xylyl)ethyl]-5-methyl-1,3-thiazole], for which the 50% effective concentration (EC50) is less than 10 nM. With `Cc1cccc([C@H](Cc2ccnn2C(F)F)c2c[nH]cn2)c1C` [Compound 281, 5-[(S)-2-(4-imidazolyl)-2-(2,3-xylyl)ethyl]-1-(difluoromethyl)pyrazole], the EC50 is less than 10 nM. The result for `Cc1cccc(C(Cc2cccnc2C)c2c[nH]cn2)c1C` (stereo not drawn) [Compound 254, 4-[2-(2-methyl-3-pyridyl)-1-(2,3-xylyl)ethyl]imidazole] reads 10 to 50 nM; that for `COCc1nccc(CC(c2c[nH]cn2)c2cccc(C)c2C)n1` (stereo not drawn) [Compound 176, 4-[2-(4-imidazolyl)-2-(2,3-xylyl)ethyl]-2-(methoxymethyl) pyrimidine], less than 10 nM; that for `Cc1cccc([C@@H](Cc2cocn2)c2c[nH]cn2)c1C` [Compound 367, 4-[(R)-2-(4-imidazolyl)-2-(2,3-xylyl)ethyl]-1,3-oxazole], greater than 500 nM.

In the case of `Cc1cccc(C(Cc2ncns2)c2c[nH]cn2)c1C` (stereo not drawn) [Compound 248, 5-[2-(4-imidazolyl)-2-(2,3-xylyl)ethyl]-1,2,4-thiadiazole], the EC50 was less than 10 nM.

Consider `Clc1cccc(C(Cc2cccnn2)c2c[nH]cn2)c1` (stereo not drawn) [Compound 139, 3-[2-(m-chlorophenyl)-2-(4-imidazolyl)ethyl] pyridazine], for which the concentration for a half-maximal effect (EC50) was greater than 500 nM. The result for `Cc1cccc([C@H](Cc2cn(C)nn2)c2c[nH]cn2)c1F` [Compound 250, 4-[(S)-2-(2-fluoro-3-tolyl)-2-(4-imidazolyl)ethyl]-1-methyl-1H-1,2,3-triazole] reads greater than 500 nM; that for `COc1nccc(C[C@@H](c2c[nH]cn2)c2cccc(C)c2OC)n1` [Compound 179, 4-[(R)-2-(4-imidazolyl)-2-(2-methoxy-3-tolyl)ethyl]-2-methoxypyrimidine], less than 10 nM. The result for `c1cc2c(c(C(Cc3cccn4ccnc34)c3c[nH]cn3)c1)OCC2` (stereo not drawn) [Compound 400, 4-[2-(1,3a-diaza-7-indenyl)-1-(2,3-dihydro-1-benzofuran-7-yl)ethyl]imidazole] reads greater than 500 nM. The result for `Cc1cccc(C(Cc2ccc(C#N)nc2)c2c[nH]cn2)c1C` (stereo not drawn) [Compound 145, 5-[2-(4-imidazolyl)-2 (2,3-xylyl)ethyl]-2-pyridinecarbonitrile] reads 10 to 50 nM. `COCc1nccc(CC(c2c[nH]cn2)c2cccc3c2OCCO3)n1` (stereo not drawn) [Compound 356, 4-[2-(2,3-dihydro-1,4-benzodioxin-5-yl)-2-(4-imidazolyl)ethyl]-2-(methoxymethyl)pyrimidine]: the EC50 lay within 10 to 50 nM. Under `Cc1cccc([C@H](Cc2cnco2)c2c[nH]cn2)c1F` [Compound 370, 5-[(S)-2-(2-fluoro-3-tolyl)-2-(4-imidazolyl)ethyl]-1,3-oxazole] stands 10 to 50 nM; under `Cc1cccc([C@H](Cc2cccc(CO)n2)c2c[nH]cn2)c1C` [Compound 147, {6-[(S)-2-(4-imidazolyl)-2-(2,3-xylyl)ethyl]-2-pyridyl}methanol], greater than 500 nM. Regarding `Cc1cc(CC(c2c[nH]cn2)c2cccc(C)c2C)ncn1` (stereo not drawn) [Compound 257, 4-[2-(4-imidazolyl)-2-(2,3-xylyl)ethyl]-6-methylpyrimidine], the concentration giving a half-maximal response (EC50) was greater than 500 nM.

Consider `Cc1cccc(C(Cc2ccnc(C(C)C)n2)c2c[nH]cn2)c1C` (stereo not drawn) [Compound 291, 4-[2-(4-imidazolyl)-2-(2,3-xylyl)ethyl]-2-isopropylpyrimidine], for which the concentration for a half-maximal effect (EC50) is less than 10 nM. On to `Cc1cccc([C@H](Cc2ccn(CF)n2)c2c[nH]cn2)c1C` [Compound 261, 3-[(S)-2-(4-imidazolyl)-2-(2,3-xylyl)ethyl]-1-(fluoromethyl)pyra-zole], for which the EC50 is less than 10 nM. Under `Cc1cccc([C@@H](Cc2ccnc(C(C)(C)O)n2)c2c[nH]cn2)c1C` [Compound 212, 2-{4-[(R)-2-(4-imidazolyl)-2-(2,3-xylyl)ethyl]-2-pyrimidinyl}-2-propanol] stands less than 10 nM.

`COc1nccc(CC(c2cccc(Cl)c2)c2c[nH]cn2)n1` (stereo not drawn) [Compound 340, 4-[2-(m-chlorophenyl)-2-(4-imidazolyl)ethyl]-2-methoxypyrimidine]: the concentration giving a half-maximal response (EC50) was 50 to 500 nM. The result for `CNc1ccc(CC(c2c[nH]cn2)c2cccc(C)c2C)cn1` (stereo not drawn) [Compound 270, N-methyl{5-[2-(4-imidazolyl)-2-(2,3-xylyl)ethyl]-2-pyridyl}amine] reads less than 10 nM; that for `COc1nccc(CC(c2c[nH]cn2)c2cccc3cnn(C)c23)n1` (stereo not drawn) [Compound 350, 7-[1-(4-imidazolyl)-2-(2-methoxy-4-pyrimidinyl)ethyl]-1-methyl-1H-indazole], 50 to 500 nM.

Consider `COc1nccc(CC(c2c[nH]cn2)c2ccccc2S(=O)(=O)N2CCCC2)n1` (stereo not drawn) [Compound 358, 4-{2-(4-imidazolyl)-2-[o-(1-pyrrolidinylsulfonyl)phenyl]ethyl}-2-methoxypyrimidine], for which the EC50 was greater than 500 nM. Under `Cc1cccc(C[C@H](c2c[nH]cn2)c2cccc3c2OCC3)n1` [Compound 266, 4-[(S)-1-(2,3-dihydro-1-benzofuran-7-yl)-2-(6-methyl-2-pyridyl)ethyl]imida-] stands greater than 500 nM; under `Cc1nccc(CC(c2ccc3c(c2)OCCO3)c2c[nH]cn2)n1` (stereo not drawn) [Compound 175, 4-[2-(2,3-dihydro-1,4-benzodioxin-6-yl)-2-(4 imidazolyl)ethyl]-2-methylpyrimidine], greater than 500 nM; under `CCOc1ccc(CC(c2c[nH]cn2)c2cccc(C)c2C)cn1` (stereo not drawn) [Compound 293, 4-[2-(6-ethoxy-3-pyridyl)-1-(2,3-xylyl)ethyl]imidazole], 10 to 50 nM.

Consider `Cc1cc(CC(c2c[nH]cn2)c2cccc(C)c2C)ccn1` (stereo not drawn) [Compound 255, 4-[2-(2-methyl-4-pyridyl)-1-(2,3-xylyl)ethyl]imidazole], for which the EC50 was less than 10 nM. The result for `Cc1cc(CC(c2c[nH]cn2)c2cccc(C)c2C)c(Cl)cn1` (stereo not drawn) [Compound 395, 4-[2-(5-chloro-2-methyl-4-pyridyl)-1-(2,3-xylyl)ethyl]imidazole] reads less than 10 nM; that for `Cc1nccc(CC(c2c[nH]cn2)c2cccc(Cl)c2Cl)n1` (stereo not drawn) [Compound 192, 4-[2-(2,3-dichlorophenyl)-2-(4-imidazolyl)ethyl]-2-methylpyrimidine], less than 10 nM. `Cn1nccc1CC(c1c[nH]cn1)c1cccc2c1OCCCO2` (stereo not drawn) [Compound 299, 5-[2-(3,4-dihydro-2H-1,5-benzodioxepin-6-yl)-2-(4-imidazolyl)ethyl]-1-]: the half-maximal effective concentration (EC50) is greater than 500 nM. `Cc1cccc(C(Cc2ccc3nccn3c2)c2c[nH]cn2)c1C` (stereo not drawn) [Compound 401, 4-[2-(1,3a-diaza-5-indenyl)-1-(2,3-xylyl)ethyl]imidazole]: the EC50 is less than 10 nM. Under `Cc1cccc([C@H](Cc2cc[nH]n2)c2c[nH]cn2)c1C` [Compound 235, 3-[(S)-2-(4-imidazolyl)-2-(2,3-xylyl)ethyl]pyrazole] stands less than 10 nM; under `OCc1nccc(CC(c2c[nH]cn2)c2cccc3c2OCC3)n1` (stereo not drawn) [Compound 344, {4-[2-(2,3-dihydro-1-benzofuran-7-yl)-2-(4-imidazolyl)ethyl]-2-pyrimidinyl}methanol], less than 10 nM.

`Cc1cccc([C@H](Cc2ccnn2CF)c2c[nH]cn2)c1C` [Compound 262, 5-[(S)-2-(4-imidazolyl)-2-(2,3-xylyl)ethyl]-1-(fluoromethyl)pyra-zole]: the 50% effective concentration (EC50) lay in the range of 10 to 50 nM. Under `Cn1nc2ccccc2c1CC(c1c[nH]cn1)c1cccc2c1OCC2` (stereo not drawn) [Compound 308, 3-[2-(2,3-dihydro-1-benzofuran-7-yl)-2-(4-imidazolyl)ethyl]-2-methyl-2H-indazole] stands 10 to 50 nM; under `COc1ncncc1CC(c1c[nH]cn1)c1cccc(C)c1C` (stereo not drawn) [Compound 275, 5-[2-(4-imidazolyl)-2-(2,3-xylyl)ethyl]-4-methoxypyrimidine], 10 to 50 nM. The result for `Cc1cccc(C(Cc2cnsc2)c2c[nH]cn2)c1C` (stereo not drawn) [Compound 391, 4-[2-(4-imidazolyl)-2-(2,3-xylyl)ethyl]isothiazole] reads less than 10 nM; that for `Cc1nc(C[C@H](c2c[nH]cn2)c2cccc(C)c2C)co1` [Compound 374, 4-[(S)-2-(4-imidazolyl)-2-(2,3-xylyl)ethyl]-2-methyl-1,3-oxazole], greater than 500 nM; that for `Cn1ccc2cccc(C(Cc3cocn3)c3c[nH]cn3)c21` (stereo not drawn) [Compound 377, 4-[2-(4-imidazolyl)-2-(1-methyl-7-indolyl)ethyl]-1,3-oxazole], 50 to 500 nM.

(Values after patent publication US20260042769A1, “TRIARYL AGONISTS OF ALPHA-2 ADRENERGIC RECEPTORS” (ALCEPTOR THERAPEUTICS, INC., priority 2023, published 2026).)
